Test results as given in patent US20090076029A1 (Palatin Technologies, Inc., priority 2007, published 2009).
Where two headings read alike, the source gives them in different places.

What was measured:
hMC4-R [1] = biological target: T1, hMC4-R; assay: Competitive inhibition assay using [I125]-NDP-α-MSH, hMC4-R membranes; assay type: binding, human; conditions: for attenuation of binding of α-MSH and AgRP to MC4-R: both ligands (NDP-α-MSH and AgRP), summary
T1 construct: expressed in transfected cells; host or cells: HEK-293

MC1-R [2] = biological target: T2, MC1-R; assay: Competitive inhibition assay using [I125]-NDP-α-MSH, MC1-R membranes; assay type: binding, mouse; conditions: for Inhibition at 1 μM (NDP-α-MSH) MC1-R: 1 μM compound
T2 construct: other: 1 μM compound

hMC5-R [3] = biological target: T3, hMC5-R; assay: Competitive inhibition assay using [I125]-NDP-α-MSH, hMC5-R membranes; assay type: binding, human; conditions: read-out: Ki (nM) (NDP-α-MSH) MC5-R
T3 construct: expressed in transfected cells; host or cells: HEK-293
Procedure, shortened: (§1)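 Membranes from HEK-293 cells expressing hMC3-R, hMC4-R or hMC5-R, or from mouse B-16 melanoma cells (MC1-R), with 0.2–0.4 nM [125I]-NDP-α-MSH in 50 mM HEPES pH 7.2 with Mg2+, Ca2+, K+. Test compound typically 1 μM; 90 min, room temperature; filtration, gamma counting. Percent inhibition vs specific binding (1 μM α-MSH), triplicate mean, negatives as 0%.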

hMC3-R [4] = biological target: T4, hMC3-R; assay: Competitive inhibition assay using [I125]-NDP-α-MSH, hMC3-R membranes; assay type: binding, human; conditions: read-out: Ki (nM) (NDP-α-MSH) MC3-R
T4 construct: expressed in transfected cells; host or cells: HEK-293
Procedure, shortened: as §1

MC1-R [5] = tested on: T5, MC1-R; assay: cAMP functional assay, B-16 mouse melanoma cells expressing MC1-R; assay type: cell-based; conditions: cAMP assay at 1 μM
T5 construct: from B-16 mouse melanoma cells (containing MC1-R); endogenous in cells; host or cells: B-16 mouse melanoma cells
Method: (§2) General method for EC50 determination in functional activity assay. Functional evaluation of compounds at melanocortin receptors was performed by measuring the accumulation of intracellular cAMP in HEK-293 cells expressing hMC3-R, hMC4-R or hMC5-R, and in B-16 mouse melanoma cells expressing MC1-R. Cells suspended in Earle's Balanced Salt Solution containing 10 mM HEPES (pH 7.5), 5 mM MgCl2, 1 mM glutamine, 0.1% albumin and 0.6 mM 3-isobutyl-1-methyl-xanthine, a phosphodiesterase inhibitor, were plated in 96 well plates at a density of 0.5×10^5 cells per well. Cells were incubated with the test compounds in the presence or absence of α-MSH for 1 hour at 37° C. cAMP levels in the cell lysates were measured using an EIA kit (Amersham). Data analysis and EC50 values were determined using nonlinear regression analysis with Prism Graph-Pad software.
(§3) Functional status. The agonist/antagonist status with respect to MC1-R, MC-3R, MC4-R and MC5-R of certain compounds of the invention was determined.

hMC4-R [6] = tested on: T1, hMC4-R; assay: cAMP functional assay in HEK-293 cells expressing MC4-R (agonist, neutral antagonist/Schild); assay type: cell-based, human; conditions: for intrinsic activity at MC4-R: NDP-α-MSH maximal stimulation = 1.0; for functional status at MC4-R: mostly at 1 μM
Procedure, shortened: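 Cells in EBSS/HEPES pH 7.5 with 0.3 mM IBMX, exposed to compound (0.05-5000 nM, 1% DMSO) for 1 h at 37 °C; cAMP by EIA, EC50 by nonlinear regression. Antagonism: 30 min compound pre-incubation, then 1 nM NDP-α-MSH for 1 h; Schild analysis over 0.005-5000 nM agonist gives pA2.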

hMC4-R [7] = tested on: T1, hMC4-R; assay type: binding, human; conditions: for Inhibition at 1 μM (AgRP) MC4-R: 1 μM compound
Procedure, shortened: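 Membranes from hMC4-R-expressing cells incubated 1 h at 37 °C with 0.2 nM [I^125]-AgRP (83-132) and increasing compound in 25 mM HEPES pH 7.5, 100 mM NaCl, 2 mM CaCl2, 2 mM MgCl2, 0.3 mM 1,10-phenanthroline, 0.5% BSA. Filtration, gamma counting; specific binding kept ≤10% of added counts.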

hMC5-R [8] = tested on: T3, hMC5-R; assay: cAMP functional assay, HEK-293 cells expressing hMC5-R; assay type: cell-based, human; conditions: cAMP assay at 1 μM
Method: as §2, §3

hMC3-R [9] = tested on: T4, hMC3-R; assay: cAMP functional assay, HEK-293 cells expressing hMC3-R; assay type: cell-based, human; conditions: cAMP assay at 1 μM
Method: as §2, §3

[10] = MC4-R membranes, Table 1, read-out: Ki (nM) I125-NPD-α-MSH
[11] = read-out: Ki (nM) (NDP-α-MSH) MC4-R
[12] = cAMP assay, read-out: EC50 (nM) at MC4-R
[13] = MC4-R membranes, Table 1, read-out: Ki (nM) I125-AgRP

**Q.** For `Cc1[nH]c2ccccc2c1CCN1C[C@H](CCCNC(=N)N)N(C(=O)[C@H](N)Cc2ccc3ccccc3c2)C[C@H]1C` [Example 9, N-(3-{1-(2(R)-Amino-3-naphthalen-2-yl-propionyl)-5(R)-methyl-4-[2-(2-methyl-1H-indol-3-yl)-ethyl]-piperazin-2(S)-yl}-propyl)-guanidine], which Ki (hMC4-R [1]; [10]) is on record?
**A.** The Ki was 26 nM.

**Q.** What about the “attenuation of binding of α-MSH and AgRP to MC4-R” value (hMC4-R [1]) of the same compound?
**A.** Its value is “attenuate the binding of both α-MSH and AgRP to MC4-R”.

**Q.** What about the Ki (hMC4-R [1]; [11]) of the same compound?
**A.** The Ki was 26 nM.

**Q.** And the Ki (MC1-R [2])?
**A.** Its Ki is 148 nM.

**Q.** What about the “Inhibition at 1 μM (NDP-α-MSH) MC1-R” value (MC1-R [2]) of the same compound?
**A.** Its value is 73%.

**Q.** What about the Ki (hMC5-R [3]) of the same compound?
**A.** The Ki was 293 nM.

**Q.** And the Ki (hMC3-R [4])?
**A.** Its Ki is 451 nM.

**Q.** And the “functional status at MC1-R” value (MC1-R [5])?
**A.** Its value is “partial agonist (intrinsic activity between 0.1 (10%) and 0.7 (70%) is classified as a partial agonist)”.

**Q.** What about the “functional status (pAg, Ag, Antag, Inactive)” value (hMC4-R [6]; MC4-R, Table 1) of the same compound?
**A.** Its value is “Ag”.

**Q.** And the EC50 (hMC4-R [6]; MC4-R, Table 1, read-out: EC50)?
**A.** The EC50 was 384 nM.

**Q.** And the “intrinsic activity at MC4-R” value (hMC4-R [6])?
**A.** The value was 0.9.

**Q.** What about the “functional status at MC4-R” value (hMC4-R [6]; cAMP assay) of the same compound?
**A.** The value was “agonist (intrinsic activity of 0.7 (70%) or higher is classified as an agonist)”.

**Q.** And the EC50 (hMC4-R [6]; [12])?
**A.** The EC50 was over 384 nM.

**Q.** And the “Inhibition at 1 μM (AgRP) MC4-R” value (hMC4-R [7])?
**A.** Its value is 92%.

**Q.** And the Ki (hMC4-R [7]; [13])?
**A.** The Ki was 35 nM.

**Q.** And the Ki (hMC4-R [7]; read-out: Ki (nM) (AgRP) MC4-R)?
**A.** Its Ki is 35 nM.

**Q.** And the “functional status at MC5-R” value (hMC5-R [8])?
**A.** The value was “agonist (intrinsic activity of 0.7 (70%) or higher is classified as an agonist)”.

**Q.** And the “functional status at MC3-R” value (hMC3-R [9])?
**A.** Its value is “no intrinsic activity (intrinsic activity below 0.1 (10%) is classified as inactive or having no intrinsic activity)”.

**Q.** Which results are given for `Cc1cc(Cl)ccc1C[C@@H](N)C(=O)N1C[C@@H](C)N(C(=O)Cc2ccc3ccccc3c2)C[C@@H]1CCCNC(=N)N` [Example 11, N-{3-[1-[2(R)-amino-3-(4-chloro-2-dimethyl-phenyl)-propionyl]-5(R)-methyl-4-(2-naphthalen-2-yl-acetyl)-piperazin-2(S)-yl]-propyl}-guanidine]?
**A.** Ki (hMC4-R [1]; [10]): 3 nM; attenuation of binding of α-MSH and AgRP to MC4-R (hMC4-R [1]): attenuate the binding of both α-MSH and AgRP to MC4-R; Ki (hMC4-R [1]; [11]): 3 nM; Ki (MC1-R [2]): 462 nM; Inhibition at 1 μM (NDP-α-MSH) MC1-R (MC1-R [2]): 3%; Ki (hMC5-R [3]): 774 nM; Ki (hMC3-R [4]): 398 nM; functional status at MC1-R (MC1-R [5]): partial agonist (intrinsic activity between 0.1 (10%) and 0.7 (70%) is classified as a partial agonist); functional status (pAg, Ag, Antag, Inactive) (hMC4-R [6]; MC4-R, Table 1): Ag; EC50 (hMC4-R [6]; MC4-R, Table 1, read-out: EC50): 18 nM; intrinsic activity at MC4-R (hMC4-R [6]): 0.9; functional status at MC4-R (hMC4-R [6]; cAMP assay): agonist (intrinsic activity of 0.7 (70%) or higher is classified as an agonist); EC50 (hMC4-R [6]; [12]): 18 nM; Inhibition at 1 μM (AgRP) MC4-R (hMC4-R [7]): 89%; Ki (hMC4-R [7]; [13]): 27 nM; Ki (hMC4-R [7]; read-out: Ki (nM) (AgRP) MC4-R): 27 nM; functional status at MC5-R (hMC5-R [8]): agonist (intrinsic activity of 0.7 (70%) or higher is classified as an agonist); functional status at MC3-R (hMC3-R [9]): partial agonist (intrinsic activity between 0.1 (10%) and 0.7 (70%) is classified as a partial agonist)

**Q.** `Cc1ccc(CCN2C[C@H](CCCNC(=N)N)N(C(=O)[C@H](N)Cc3ccc4ccccc4c3)C[C@H]2C)cc1` [Example 5, N-{3-[1-(2(R)-Amino-3-naphthalen-2-yl-propionyl)-5(R)-methyl-4-(2-p-tolyl-ethyl)-piperazin-2(S)-yl]-propyl}-guanidine] was tested. Which Ki (hMC4-R [1]; [10]) did it give?
**A.** Its Ki is 29 nM.

**Q.** And the “attenuation of binding of α-MSH and AgRP to MC4-R” value (hMC4-R [1])?
**A.** The value was “attenuate the binding of both α-MSH and AgRP to MC4-R”.

**Q.** What about the Ki (hMC4-R [1]; [11]) of the same compound?
**A.** Its Ki is 29 nM.

**Q.** What about the Ki (MC1-R [2]) of the same compound?
**A.** Its Ki is 135 nM.

**Q.** What about the “Inhibition at 1 μM (NDP-α-MSH) MC1-R” value (MC1-R [2]) of the same compound?
**A.** The value was 32%.

**Q.** What about the Ki (hMC5-R [3]) of the same compound?
**A.** The Ki was 448 nM.

**Q.** And the Ki (hMC3-R [4])?
**A.** Its Ki is 164 nM.

**Q.** And the “functional status at MC1-R” value (MC1-R [5])?
**A.** The value was “partial agonist (intrinsic activity between 0.1 (10%) and 0.7 (70%) is classified as a partial agonist)”.

**Q.** What about the “functional status (pAg, Ag, Antag, Inactive)” value (hMC4-R [6]; MC4-R, Table 1) of the same compound?
**A.** The value was “pAg (“pAg” means partial agonist)”.

**Q.** What about the EC50 (hMC4-R [6]; MC4-R, Table 1, read-out: EC50) of the same compound?
**A.** The EC50 was 370 nM.

**Q.** And the “intrinsic activity at MC4-R” value (hMC4-R [6])?
**A.** Its value is 0.6.

**Q.** What about the EC50 (hMC4-R [6]; [12]) of the same compound?
**A.** The EC50 was 370 nM.

**Q.** And the “Inhibition at 1 μM (AgRP) MC4-R” value (hMC4-R [7])?
**A.** Its value is 93%.

**Q.** And the Ki (hMC4-R [7]; [13])?
**A.** The Ki was 42 nM.

**Q.** What about the Ki (hMC4-R [7]; read-out: Ki (nM) (AgRP) MC4-R) of the same compound?
**A.** The Ki was 42 nM.

**Q.** And the “functional status at MC5-R” value (hMC5-R [8])?
**A.** Its value is “partial agonist (intrinsic activity between 0.1 (10%) and 0.7 (70%) is classified as a partial agonist)”.

**Q.** What about the “functional status at MC3-R” value (hMC3-R [9]) of the same compound?
**A.** Its value is “no intrinsic activity (intrinsic activity below 0.1 (10%) is classified as inactive or having no intrinsic activity)”.
